Experimental data published in patent US12403132B2, “Methods of treating bone marrow failure syndromes and compositions for use in the same” (The Board of Trustees of the Leland Stanford Junior …, priority 2020, dated 2025).
pEC50: −log10 of the molar value. Where two headings read alike, the source gives them in different places.

Columns and labels:
[1] = biological target: T1, NLK (Homo sapiens, UniProt Q9UBE8); assay: Kinase assay of NLK immunopurified from treated differentiating human progenitors; type: cell-based; design: 5000 cells per treatment were lysed and immunopurified NLK was subjected to in vitro kinase assay; endogenous in cells; host or cells: human cord blood CD34+ HSPCs transduced with shLuc / shRPS19 / shRPL11, differentiating in erythroid medium; details: for reduction in kinase activity of NLK immuno-precipitated from treated cultures: RPS19-insufficient human progenitors
T1 sequence (Q9UBE8 1-527): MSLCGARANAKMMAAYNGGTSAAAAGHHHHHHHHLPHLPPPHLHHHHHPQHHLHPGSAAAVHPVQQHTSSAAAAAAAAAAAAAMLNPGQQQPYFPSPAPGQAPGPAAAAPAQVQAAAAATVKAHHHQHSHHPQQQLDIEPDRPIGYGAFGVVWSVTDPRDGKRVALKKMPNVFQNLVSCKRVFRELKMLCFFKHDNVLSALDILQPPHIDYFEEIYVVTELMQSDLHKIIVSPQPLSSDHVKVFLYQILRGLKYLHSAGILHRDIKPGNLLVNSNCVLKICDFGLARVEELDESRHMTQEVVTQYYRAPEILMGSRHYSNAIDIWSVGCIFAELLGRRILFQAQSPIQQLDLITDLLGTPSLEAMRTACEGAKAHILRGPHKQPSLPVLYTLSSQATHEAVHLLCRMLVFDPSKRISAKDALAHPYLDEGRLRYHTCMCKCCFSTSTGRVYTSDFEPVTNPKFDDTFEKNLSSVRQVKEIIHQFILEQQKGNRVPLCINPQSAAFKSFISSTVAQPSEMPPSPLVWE
Procedure: FIG. 7. SD208 increases erythroid expansion in human model of DBA through inhibition of NLK and not TGFβ. (a) Differentiating cord blood CD34+ progenitors were transduced with shRNA against luciferase or RPS19 and treated with inhibitors at working concentrations for TGFβ inhibition every three days. Cells were counted and CD235+ erythroid cells were assessed by flow cytometry after 15 days. (b) Prior to flow cytometry, 5000 cells per group were taken from differentiating cultures for NLK kinase assay. (c) CD34+ progenitors were transduced with shRNA against luciferase or RPS19 and non-targeting or siRNA against NLK. After sorting, samples were split into two groups and either treated with vehicle or SD208 every three days. After 15 days cells were counted and subject to flow cytometry to compare the expansion of maturing CD235+ erythroid (left panel) and CD11b+ myeloid cells (right panel). (d) Cord Blood CD34+ progenitors were transduced with shRNA against luciferase (left panel) or RPS19 (right panel) differentiated in erythroid media for 15 days alone, or in the presence of SB525334 or SD208 at 5 μM. Cells were counted and CD235+ erythroid (D—upper) and CD11b+ myeloid cell (D—lower) percentages were determined by flow cytometry. The number of erythroid or myeloid cells is expressed as a percentage of the number of that lineage with no cytokine or drug treatment.
FIG. 8. NLK inhibition increases expansion of erythroid progenitors from human and murine models of DBA. Human cord blood CD34+ progenitors were transduced with lentivirus co-expressing GFP with shRNA against luciferase (shLuc), RPS19 (shRPS19) or RPL11 (shRPL11). After 36 hours cells GFP+ cells were differentiated in erythroid media in the presence or absence of 5 μM SD208 for 15 days. Cells were counted and assessed for cell surface expression of CD235. (a) The percentage of CD235+ cells was multiplied by the cell count and values were compared as a percentage of untreated controls. (b) Normalizing values relative to untreated RPS19-insufficiency progenitors facilitates direct comparison of erythropoiesis between untreated and SD208-treated cultures. (c) Approximately 3000 cells were removed from differentiating treatments at day 6 and NLK activity was assessed. Values were normalized to reflect a fold induction relative to untreated controls. (d) Lin-Kit+ hematopoietic progenitors were obtained from three mouse embryos expressing tetracycline-inducible shRNA against RPS19 at day E14.5 or three untreated mice, and thee mature RPL11^+/+ or three mature RPL11^+/lox mice treated with tamoxifen for eight weeks. Cells were grown in the presence or absence of doxycycline and/or SD208 for eight days prior to counting and assessing for ter119 surface expression. Values were expressed as a percentage relative to untreated controls (e) and directly comparing the effect of SD208 on erythropoiesis in ribosomal-insufficiency by expressing values relative to untreated ribosome-insufficient cultures (f). At day 5 approximately 3000 cells were assayed for NLK kinase assay (g). CD34+ HSPCs were isolated from three healthy control and three DBA patient mononuclear bone marrow aspirates by magnetic bead sorting and differentiated in the presence or absence of SD208 for 14 days. After counting the total cell population, the ratio of CD235+ erythroblasts was determined by flow cytometry and number of CD235+ erythroblasts calculated. This was expressed as a percentage of the average number of erythroid cells present in untreated healthy controls. (h) The direct effect of SD208 on erythroid expansion in DBA patient samples was calculated following normalization of untreated DBA patient samples as 1-fold, (i) At day five, 3000 cells from each of the differentiating cultures was analyzed for NLK activity by kinase assay and are expressed as a fold induction relative to untreated healthy controls. […]

[2] = test system: CD235+ erythroblasts; assay: CD235+ erythroid expansion of differentiating human cord blood CD34+ progenitors (shRPS19/shRPL11 DBA models), flow cytometry; type: cell-based; design: increase of erythroid expansion / impact on erythropoiesis in healthy controls / erythroid expansion in RPS19-insufficiency: dose or concentration left out as unconfirmed; details: for erythroid expansion in RPS19-insufficiency: alone and combined; for increase of CD235+ erythroid expansion / CD235+ erythroid expansion, % of control: 50 mM metformin; for CD235+ erythroid expansion, % of control: 14 days
[3] = RPS19-insufficient progenitors, 50 mM metformin, 5 days

SMILES: Cc1cccc(-c2nn3c(c2-c2ccnc4ccc(C(N)=O)cc24)CCC3)n1 [Galunisertib]
- reduction in kinase activity of NLK immuno-precipitated from treated cultures [1]: 61.2%

SMILES: NC(=O)c1ccc(-c2nc(-c3ccc4c(c3)OCO4)c(-c3ccccn3)[nH]2)cc1 [SB431542]
- reduction in kinase activity of NLK immuno-precipitated from treated cultures [1]: 73.6%

SMILES: Fc1ccc(Cl)cc1-c1nc(Nc2ccncc2)c2nccnc2n1 [SD208]
- NLK activity, NLK phosphorylation, fold of untreated controls ([1]; RPL11-insufficiency with SD208 5 μM, 3.0-fold without): 1.2 fold
- NLK activity, Myb phosphorylation, fold of untreated controls ([1]; RPL11-insufficiency with SD208 5 μM, 4.6-fold without): 1.38 fold
- NLK activity, raptor phosphorylation, fold of untreated controls ([1]; RPL11-insufficiency with SD208 5 μM, 7.3-fold without): 1.6 fold
- NLK activity, NLK phosphorylation, fold of untreated controls ([1]; RPS19-insufficiency with SD208 5 μM, 3.5-fold without): 1.2 fold
- NLK activity, Myb phosphorylation, fold of untreated controls ([1]; RPS19-insufficiency with SD208 5 μM, 5.2-fold without): 1.5 fold
- NLK activity, raptor phosphorylation, fold of untreated controls ([1]; RPS19-insufficiency with SD208 5 μM, 8.4-fold without): 1.7 fold
- reduction in kinase activity of NLK immuno-precipitated from treated cultures [1]: 92.5%
- CD235+ erythroblast expansion, % of controls ([2]; RPS19-insufficient, SD208 and/or siRNA against NLK, 15 days): 40.3%
- erythroid expansion, % of untreated controls ([2]; control shRNA, SD208 5 μM, 15 days): approximately 105%

SMILES: CC(C)=CCC[C@](C)(O[C@@H]1O[C@H](CO[C@@H]2O[C@H](CO)[C@@H](O)[C@H](O)[C@H]2O)[C@@H](O)[C@H](O)[C@H]1O)[C@H]1CC[C@]2(C)[C@@H]1[C@H](O)C[C@@H]1[C@@]3(C)CC[C@H](O[C@@H]4O[C@H](CO)[C@@H](O)[C@H](O)[C@H]4O[C@@H]4O[C@H](CO)[C@@H](O)[C@H](O)[C@H]4O)C(C)(C)[C@@H]3CC[C@]12C [ginsenoside Rb1]
- concentration at which 90% potency is achieved [2]: 8.6 mM
- impact on erythropoiesis in healthy controls [2]: did not significantly impact
- improvement of erythroid expansion ([2]; RPS19-insufficiency, ginsenoside and/or siRNA against NLK): 2.7 fold
- increase of erythroid expansion ([2]; RPS19-insufficiency, miRNA and/or drug): 2.52 fold
- increase of erythroid expansion ([2]; RPS19-insufficient progenitors): 2.6 fold
- erythroid expansion in RPS19-insufficiency [2]: 20.9%
- pEC50 ([2]; read-out: EC50 value (erythroid expansion)): 2.64

SMILES: CN(C)C(=N)N=C(N)N [metformin]
- reduction of phosphorylation of NLK [1, 3]: 48.5%
- reduction of phosphorylation of c-Myb [1, 3]: 39.8%
- reduction of phosphorylation of raptor [1, 3]: 40.2%
- concentrations at which significant erythroid improvement was detected [2]: above 8 mM
- pEC50 ([2]; Homo sapiens, read-out: EC50 (erythroid expansion)): 1.94
- increase of CD235+ erythroid expansion ([2]; RPL11-insufficiency): 2.0 fold
- CD235+ erythroid expansion, % of control ([2]; RPL11-insufficiency, 16.4% untreated): 32.7%
- improvement of erythropoiesis (CD235+) ([2]; RPS19-insufficiency (8.3% of controls untreated), 12 days): 3.6 fold
- increase of CD235+ erythroid expansion ([2]; RPS19-insufficiency): 5.9 fold
- CD235+ erythroid expansion, % of control ([2]; RPS19-insufficiency, 5.7% untreated): 33.3%
- erythroid expansion in RPS19-insufficiency [2]: 28.4%
